Laboratory results: patent US7786083B2, “Metastin derivatives and use thereof” (Takeda Pharmaceutical Company Limited, priority 2006, dated 2010)
*1 amine or outer side, *2 acyl side, *3 side chain or, on linkers, in order; H or OH if unused. Where a SMILES comes first, the peptide text is derived from it. [ ]: non-standard residue; d: D form. X2 = O=C(/C=C/[C@@H](O)[C@H](Cc1ccccc1)N[*:1])[*:2]; X3 = O=C(CC[C@@H](O)[C@H](Cc1ccccc1)N[*:1])[*:2]; Phe(3-Me) = Cc1cccc(C[C@H](N)C(=O)O)c1; Phe(4-Me) = Cc1ccc(C[C@H](N)C(=O)O)cc1; Phe(2-Me) = Cc1ccccc1C[C@H](N)C(=O)O; Arg(Me) = CNC(=N)NCCC[C@H](N)C(=O)O; Dap(CONH2) = NC(=O)NC[C@H](N)C(=O)O; Hyp = O=C(O)[C@@H]1C[C@@H](O)CN1; αMeF = C[C@](N)(Cc1ccccc1)C(=O)O

Test system: metastin receptors
Experiment: Measurement of agonist activity by assaying changes in intracellular calcium ion level (FLIPR, Fluo-4 NW)
Type: cell-based, human
Conditions: specific activity of the EC50 of a test compound based on the EC50 of Metastin (45-54), metastin receptor expression CHO cells
Method: 1) Preparation of Human Metastin and Rat Metastin Stable Expression Cell Lines
Human metastin and rat metastin stable expression cell lines were obtained by transfecting the expression plasmid for animal cells into CHO/dhfr^− cells using CellPhect Transfection Kit (manufactured by GE Healthcare). First, 240 μL of Buffer A (attached to CellPhect Transfection Kit) was added to 9.6 μg of plasmid DNA dissolved in 240 μL of distilled water followed by stirring. After the mixture was settled for 10 minutes, 480 μL of Buffer B (attached to CellPhect Transfection Kit) was added to the mixture, which was vigorously stirred to form liposomes containing the DNA. Then, 4×10^5 CHO/dhfr^− cells (obtained from ATCC) were inoculated on a 60 mm Petri dish. After culturing the cells in Ham's F-12 medium (manufactured by Nissui Seiyaku Co., Ltd.) supplemented with 10% fetal bovine serum (manufactured by BIO […], Inc.) at 37° C. for 2 days in 5% carbon dioxide gas, […] of the liposomes were dropwise added to the cells on the Petri dish. After culturing the cells in a CO2 incubator (5% CO2, 37° C.) for 6 hours, the cells were washed twice with serum-free Ham's F-12 medium and 3 mL of 15% glycerol was added to the cells on the Petri dish followed by treatment for 2 minutes. The cells were again washed twice with serum-free Ham's F-12 medium followed by incubation in Ham's F-12 medium supplemented with 10% fetal bovine serum in a CO2 incubator (5% CO2, 37° C.) for 15 hours. The cells were dispersed by trypsin treatment to recover from the Petri dish. The recovered cells were inoculated on a 6-well plate in 1.25×10^4 cells each/well and incubation was initiated in a CO2 incubator (5% CO2, 37° C.) in Dulbecco's modified Eagle medium (DMEM, manufactured by Nissui Seiyaku) containing 10% dialyzed fetal bovine serum (manufactured by JRH BIOSCIENCES, Inc.). The plasmid-transfected CHO transformants grew in the medium but the non-transfected cells gradually died, accordingly the medium was exchanged on Days 1 and 2 after the initiation of incubation to remove the dead cells. Approximately 20 colonies of the CHO transformants that kept growing on Days 8 to 10 after the incubation were isolated. From the cells in these colonies, cells showing high reactivity with the ligand peptide metastin (hereinafter merely referred to as h175 KB19 and h175 KB29 strains) were selected to provide for the following experiment.
Human metastin expression CHO cell line (h175 KB19 strain is described in a separate section) and rat metastin expression CHO cell line (h175 KB29 strain is described in a separate section) were seeded in a 96-well plate (type 3904, manufactured by Corning) at 3×10^4 cells/well, followed by incubation in a CO2 incubator (5% CO2, 37° C.) for 24 hours. For the medium, MEMα medium (nucleic acid-free, manufactured by Nikken Bio Medical Laboratory) supplemented with dialyzed 10% fetal bovine serum (manufactured by Thermo, MultiSer) was used.
3) Loading with Fluo-4 NW in Cells
As an assay buffer, 1× Hanks' balanced salt solution (HBSS, manufactured by GIBCO) supplemented with 0.1% BSA, 20 mM HEPES (pH 7.4, manufactured by GIBCO) and 1 mM Probenecid (manufactured by Molecular Probes) was prepared. The medium in the wells of the cell-seeded plate was removed and 100 μL each of the assay buffer (kept warm at 37° C.) was added to each well. After 10 mL of the assay buffer (the volume for assaying two plates) was charged in one Fluo-4NW dye mix (Component A, Fluo-4 NW calcium assay kit (starter pack), manufactured by Molecular Probes) bottle, the mixture was gently stirred to prepare the Fluo-4 NW loading solution. This loading solution was charged in each well by 50 μl each and reacted in a CO2 incubator (5% CO2, 37° C.) for 30 minutes for loading with Fluo-4 NW into the cells. Subsequently, the cells were settled at room temperature (25° C.) for 15 minutes and then used for assay.
4) Measurement of Agonist Activity […]

Row | Structure (SMILES) | Specific Activity
1 | CNC(=N)NCCC[C@H](NC(=O)[C@H](CC(C)C)NC(=O)/C=C/[C@@H](O)[C@H](Cc1ccccc1)NC(=O)[C@@H](NC(=O)[C@H](CC(N)=O)NC(=O)[C@@H]1C[C@@H](O)CN1C(=O)[C@@H](Cc1ccc(O)cc1)NC(C)=O)[C@@H](C)O)C(=O)N[C@@H](Cc1c[nH]c2ccccc12)C(N)=O [Compound No. 866, des(1)-Ac-[D-Tyr2,Hyp3,Thr5,Phe6Ψ((R)CHOH—(E)CH=)Gly7,Arg(Me)9,Trp10]MS10] (Ac-[dY][Hyp]NT[X2]L[Arg(Me)]W-NH2) | 1.4
2 | CNC(=N)NCCC[C@H](NC(=O)[C@H](CC(C)C)NC(=O)CC[C@@H](O)[C@H](Cc1ccccc1)NC(=O)[C@@H](NC(=O)[C@H](CC(N)=O)NC(=O)[C@@H]1C[C@@H](O)CN1C(=O)[C@@H](Cc1ccc(O)cc1)NC(C)=O)[C@@H](C)O)C(=O)N[C@@H](Cc1c[nH]c2ccccc12)C(N)=O [Compound No. 867, des(1)-Ac-[D-Tyr2,Hyp3,Thr5,Phe6Ψ((R)CHOH—CH2)Gly7,Arg(Me)9,Trp10]MS10] (Ac-[dY][Hyp]NT[X3]L[Arg(Me)]W-NH2) | 0.8
3 | CNC(=N)NCCC[C@H](NC(=O)[C@H](CC(C)C)NC(=O)CNC(=O)[C@](C)(Cc1ccccc1)NC(=O)[C@@H](NC(=O)[C@H](CC(N)=O)NC(=O)[C@@H]1C[C@@H](O)CN1C(=O)[C@@H](Cc1ccc(O)cc1)NC(C)=O)[C@@H](C)O)C(=O)N[C@@H](Cc1c[nH]c2ccccc12)C(N)=O [Compound No. 869, des(1)-Ac-[D-Tyr2,Hyp3,Thr5,αMePhe6,Arg(Me)9,Trp10]MS10] (Ac-[dY][Hyp]NT[αMeF]GL[Arg(Me)]W-NH2) | 3.8
4 | CNC(=N)NCCC[C@H](NC(=O)[C@H](CC(C)C)NC(=O)CNC(=O)[C@H](Cc1ccccc1C)NC(=O)[C@@H](NC(=O)[C@H](CC(N)=O)NC(=O)[C@@H]1C[C@@H](O)CN1C(=O)[C@@H](Cc1ccc(O)cc1)NC(C)=O)[C@@H](C)O)C(=O)N[C@@H](Cc1c[nH]c2ccccc12)C(N)=O [Compound No. 871, des(1)-Ac-[D-Tyr2,Hyp3,Thr5,Phe(2Me)6,Arg(Me)9,Trp10]MS10] (Ac-[dY][Hyp]NT[Phe(2-Me)]GL[Arg(Me)]W-NH2) | 0.7
5 | CNC(=N)NCCC[C@H](NC(=O)[C@H](CC(C)C)NC(=O)CNC(=O)[C@H](Cc1cccc(C)c1)NC(=O)[C@@H](NC(=O)[C@H](CC(N)=O)NC(=O)[C@@H]1C[C@@H](O)CN1C(=O)[C@@H](Cc1ccc(O)cc1)NC(C)=O)[C@@H](C)O)C(=O)N[C@@H](Cc1c[nH]c2ccccc12)C(N)=O [Compound No. 873, des(1)-Ac-[D-Tyr2,Hyp3,Thr5,Phe(3Me)6,Arg(Me)9,Trp10]MS10] (Ac-[dY][Hyp]NT[Phe(3-Me)]GL[Arg(Me)]W-NH2) | 0.8
6 | CNC(=N)NCCC[C@H](NC(=O)[C@H](CC(C)C)NC(=O)CNC(=O)[C@H](Cc1ccc(C)cc1)NC(=O)[C@@H](NC(=O)[C@H](CC(N)=O)NC(=O)[C@@H]1C[C@@H](O)CN1C(=O)[C@@H](Cc1ccc(O)cc1)NC(C)=O)[C@@H](C)O)C(=O)N[C@@H](Cc1c[nH]c2ccccc12)C(N)=O [Compound No. 875, des(1)-Ac-[D-Tyr2,Hyp3,Thr5,Phe(4Me)6,Arg(Me)9,Trp10]MS10] (Ac-[dY][Hyp]NT[Phe(4-Me)]GL[Arg(Me)]W-NH2) | 0.9
7 | CNC(=N)NCCC[C@H](NC(=O)[C@H](CC(C)C)NC(=O)CNC(=O)[C@H](Cc1ccccc1)NC(=O)[C@@H](NC(=O)[C@H](CNC(N)=O)NC(=O)[C@@H]1C[C@@H](O)CN1C(=O)[C@@H](Cc1ccc(O)cc1)NC(C)=O)[C@@H](C)O)C(=O)N[C@@H](Cc1c[nH]c2ccccc12)C(N)=O [Compound No. 885, des(1)-Ac-[D-Tyr2,Hyp3,Alb4,Thr5,Arg(Me)9,Trp10]MS10] (Ac-[dY][Hyp][Dap(CONH2)]TFGL[Arg(Me)]W-NH2) | 0.5
